Data taken from article PMC8151276, “An Integrated Approach toward NanoBRET Tracers for Analysis of GPCR Ligand Engagement” (Molecules, 2021).

Tests used:
Assay type in all cases: binding
HTR1B = molecular target: T1, HTR1B (Homo sapiens, UniProt P28222); assay: NanoBRET screen HiBiT-HTR1B in HEK293
T1 construct: purchased Promega (in-house HiBiT-GPCR construct library, NanoBRET)
Description: (§1) Each tracer candidate was screened across the entire library of HiBiT-GPCR constructs using NanoBRET as the detection modality. As depicted in Figure 4A, the specificity of interactions was evaluated through decrease in BRET due to competitive displacement of a bound tracer by excess parental compound. Each tracer was analyzed for binding to each HiBiT-GPCR fusion in the absence and in the presence of competing parental compound. Briefly, HEK293 cells were transfected with HiBiT-GPCR constructs diluted into promoterless DNA to reduce expression and maximize translocation to the cell surface. Each tracer candidate was then screened at concentrations of 1 μM and 0.1 μM across cells expressing these fusions. Cells were treated for 1.5 h with tracer either alone or in the presence of 20 μM competing parental compound (i.e., control). BRET was measured upon addition of purified LgBiT and subsequent complementation with HiBiT genetically fused to a GPCR. The specificity of interactions was assessed through a decrease in BRET signal due to competitive displacement of the bound tracer. To further gauge the robustness of these interactions, the fold response over the control (i.e., BRETtracer/BRETcontrol) was calculated. We chose a 1.5-fold response, which translates to ≥7-fold signal over noise as the minimal threshold required to score an interaction as positive. […]. Below we highlight the screening results obtained for our exemplary fluorescent tracers based on Clozapine, Amitriptyline and AZD1283.
(§2) HiBiT-GPCR DNA constructs were diluted in 10 mM Tris pH 8 to a final concentration of 0.01 μg/μL, arrayed in 96-well plates and stored at −20 °C. For transfection, HEK293 cells were suspended in Opti-MEM (without phenol red) supplemented with 2% fetal bovine serum (Seradigm) and 100 units/mL penicillin–streptomycin (Gibco) at a final concentration of 220,000 cells/mL and dispensed into white 96-well plates at 90 μL/well. Subsequent transfections and screens were carried using an Agilent Bravo Automated Liquid Handling Platform. First, the 96-well HiBiT DNA arrays were diluted 25-fold in Opti-MEM (without serum or phenol red) to a final concentration of 0.0004 μg/μL and 20 μL of the diluted DNAs were transferred into new 96-well plates. Next, promoterless carrier DNA (1 μg/μL) was diluted 25-fold (0.04 μg/μL) and then dispensed into the diluted arrays at 20 μL/well. Following brief mixing, Viafect transfection reagent (Promega) diluted 16-fold into Opti-MEM was dispensed into the plates at 40 μL/well. After mixing by pipetting, plates were incubated for 10 min on the pipetting station deck. The DNA-transfection reagent complexes were then added to plates containing cells. To facilitate the screen, 10 μL of DNA-transfection reagent complexes were added in duplicates to the top 4 and bottom 4 rows, resulting in two identical 48-well arrays per plate. Plates with transfected cells were incubated for 18–20 h at 37 °C/5% CO2. A screen of each tracer across the entire library using two different concentrations requires duplicate plates of transfected cells. Depending on the number of tracers being screened, transfections can be scaled up using the same ratios. The next day, for each tracer, four 20× screening solutions in tracer dilution buffer (Promega) were prepared: two duplicates at final concentration of 20 μM and two duplicates at a final concentration of 2 μM. A competing unmodified compound was added to one of each duplicate at a final concentration of 400 μM. The four resulting solutions were diluted 4-fold in Opti-MEM without serum or phenol red to generate 5× solutions (5 µM and 0.5 µM tracer +/− 100 μM competing compound). To screen the library, a BioTek MultiFlo FX liquid dispenser was used to dispense 22.5 µL of tracer solution to the top 4 rows and 22.5 µL tracer + competing compound solution to the 4 bottom rows. Plates were briefly mixed on an orbital shaker and incubated for 1.5 h at room temperature. […]

OXER1 = molecular target: T2, OXER1 (Homo sapiens, UniProt Q8TDS5); assay: NanoBRET screen HiBiT-OXER1 in HEK293
T2 construct: purchased Promega (in-house HiBiT-GPCR construct library, NanoBRET)
Description: as §1, §2

MTNR1B = molecular target: T3, MTNR1B (Homo sapiens, UniProt P49286); assay: NanoBRET screen HiBiT-MTNR1B in HEK293
T3 construct: purchased Promega (in-house HiBiT-GPCR construct library, NanoBRET)
T3 sequence (P49286 1-362): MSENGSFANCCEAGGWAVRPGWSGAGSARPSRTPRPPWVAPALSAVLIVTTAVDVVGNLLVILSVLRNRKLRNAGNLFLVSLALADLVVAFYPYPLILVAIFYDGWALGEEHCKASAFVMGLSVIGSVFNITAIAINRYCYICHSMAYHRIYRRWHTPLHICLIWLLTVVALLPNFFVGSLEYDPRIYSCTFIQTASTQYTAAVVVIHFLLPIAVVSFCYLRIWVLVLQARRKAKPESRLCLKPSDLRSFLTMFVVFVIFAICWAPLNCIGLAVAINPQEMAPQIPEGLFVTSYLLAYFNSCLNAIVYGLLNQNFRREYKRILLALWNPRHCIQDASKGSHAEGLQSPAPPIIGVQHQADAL
Description: as §1, §2

LGR4 = molecular target: T4, LGR4 (Homo sapiens, UniProt Q9BXB1); assay: NanoBRET screen HiBiT-LGR4 in HEK293
T4 construct: purchased Promega (in-house HiBiT-GPCR construct library, NanoBRET)
T4 sequence (Q9BXB1 25-951): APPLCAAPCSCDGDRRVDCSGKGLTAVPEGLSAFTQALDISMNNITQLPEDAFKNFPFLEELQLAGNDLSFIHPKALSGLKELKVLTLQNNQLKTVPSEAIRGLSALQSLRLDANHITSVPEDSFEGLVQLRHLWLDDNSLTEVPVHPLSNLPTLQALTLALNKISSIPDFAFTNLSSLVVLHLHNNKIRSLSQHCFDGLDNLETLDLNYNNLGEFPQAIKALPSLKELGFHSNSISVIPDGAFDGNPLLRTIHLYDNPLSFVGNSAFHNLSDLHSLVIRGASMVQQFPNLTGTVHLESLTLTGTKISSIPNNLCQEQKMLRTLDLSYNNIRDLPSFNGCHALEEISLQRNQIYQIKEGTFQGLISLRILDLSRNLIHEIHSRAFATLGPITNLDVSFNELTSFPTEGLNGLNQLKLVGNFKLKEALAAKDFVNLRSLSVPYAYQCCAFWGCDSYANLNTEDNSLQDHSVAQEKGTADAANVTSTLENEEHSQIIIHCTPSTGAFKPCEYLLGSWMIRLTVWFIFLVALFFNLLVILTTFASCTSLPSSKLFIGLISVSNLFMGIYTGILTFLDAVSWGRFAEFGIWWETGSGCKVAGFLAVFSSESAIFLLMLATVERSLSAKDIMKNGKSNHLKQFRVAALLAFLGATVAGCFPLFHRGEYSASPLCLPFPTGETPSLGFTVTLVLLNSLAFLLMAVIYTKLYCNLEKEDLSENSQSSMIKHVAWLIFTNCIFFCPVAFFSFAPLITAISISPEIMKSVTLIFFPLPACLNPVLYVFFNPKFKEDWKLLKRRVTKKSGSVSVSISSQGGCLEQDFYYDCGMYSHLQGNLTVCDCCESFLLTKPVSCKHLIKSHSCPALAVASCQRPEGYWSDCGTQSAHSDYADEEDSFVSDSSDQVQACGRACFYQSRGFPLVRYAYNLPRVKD
Description: as §1, §2

T2 sequence (Q8TDS5 whole entry): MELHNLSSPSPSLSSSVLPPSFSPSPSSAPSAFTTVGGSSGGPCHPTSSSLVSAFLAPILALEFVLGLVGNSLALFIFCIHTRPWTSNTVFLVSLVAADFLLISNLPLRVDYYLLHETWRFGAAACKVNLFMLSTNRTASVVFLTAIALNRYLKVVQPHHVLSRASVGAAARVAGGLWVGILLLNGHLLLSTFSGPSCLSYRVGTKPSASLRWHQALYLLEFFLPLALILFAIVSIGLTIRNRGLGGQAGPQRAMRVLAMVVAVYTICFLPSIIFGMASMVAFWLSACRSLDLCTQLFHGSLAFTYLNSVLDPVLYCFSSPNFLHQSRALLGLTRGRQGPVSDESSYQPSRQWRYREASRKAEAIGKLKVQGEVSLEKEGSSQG
T1 sequence (P28222 whole entry): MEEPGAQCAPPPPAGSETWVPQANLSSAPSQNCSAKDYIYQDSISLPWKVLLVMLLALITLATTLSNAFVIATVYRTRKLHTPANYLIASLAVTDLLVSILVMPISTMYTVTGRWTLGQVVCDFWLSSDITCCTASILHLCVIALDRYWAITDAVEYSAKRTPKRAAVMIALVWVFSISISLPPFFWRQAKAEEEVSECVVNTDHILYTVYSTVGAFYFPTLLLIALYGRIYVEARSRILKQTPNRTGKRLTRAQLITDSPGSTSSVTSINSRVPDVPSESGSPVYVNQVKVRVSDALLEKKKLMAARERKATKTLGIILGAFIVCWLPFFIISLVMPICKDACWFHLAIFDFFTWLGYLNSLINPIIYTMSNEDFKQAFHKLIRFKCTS

NanoBRET Fold Response (HTR1B; 0.1μM tracer)	NanoBRET Fold Response (HTR1B; 1μM tracer)	NanoBRET Fold Response (OXER1; 0.1μM tracer)	NanoBRET Fold Response (OXER1; 1μM tracer)	NanoBRET Fold Response (MTNR1B; 0.1μM tracer)	NanoBRET Fold Response (MTNR1B; 1μM tracer)	NanoBRET Fold Response (LGR4; 0.1μM tracer)	NanoBRET Fold Response (LGR4; 1μM tracer)	SMILES	NanoBRET Fold Response (HTR1B; tracer at 1μM)	NanoBRET Fold Response (HTR1B; HTR1B, 0.1μM tracer)	NanoBRET Fold Response (HTR1B; HTR1B, 1μM tracer)	NanoBRET Fold Response (OXER1; OXER1, 0.1μM tracer)	NanoBRET Fold Response (OXER1; OXER1, 1μM tracer)	NanoBRET Fold Response (MTNR1B; MTNR1B, 0.1μM tracer)	NanoBRET Fold Response (MTNR1B; MTNR1B, 1μM tracer)	NanoBRET Fold Response (LGR4; LGR4, 0.1μM tracer)	NanoBRET Fold Response (LGR4; LGR4, 1μM tracer)
–	–	–	–	–	–	–	–	CN(CCC=C1c2ccccc2CCc2ccccc21)C(=O)CCOCCOCCOCCOCCNC(=O)CCc1ccc2n1[B-](F)(F)[N+]1=C(c3ccc[nH]3)C=CC1=C2 [Amitriptyline-e-2-NB590]	1.01	–	–	–	–	–	–	–	–
0.74	0.74	1.39	1.06	1.07	1.12	1.20	0.99	COc1ccc2c(n1)c(CCNC(C)=O)cn2CCNC(=O)CCc1ccc2n1[B-](F)(F)[N+]1=C(c3ccc[nH]3)C=CC1=C2 [Azamelatonin-1-NB590]	–	–	–	–	–	–	–	–	–
0.92	1.13	1.11	0.83	2.05	2.32	1.10	1.00	COc1ccc2[nH]c(-c3ccc(CNC(=O)CCOCCOCCOCCOCCNC(=O)CCc4ccc5n4[B-](F)(F)[N+]4=C(c6ccc[nH]6)C=CC4=C5)cc3)c(CCNC(C)=O)c2n1 [AzomelatoninICO9-2-NB590]	–	–	–	–	–	–	–	–	–
–	–	–	–	–	–	–	–	O=C(CCOCCOCCOCCOCCNC(=O)CCc1ccc2n1[B-](F)(F)[N+]1=C(c3ccc[nH]3)C=CC1=C2)NCCCN1CCN(C2=Nc3cc(Cl)ccc3Nc3ccccc32)CC1 [Clozapine-a-2-NB590]	–	4.16	2.29	0.95	1.00	1.06	0.97	1.02	0.99
–	–	–	–	–	–	–	–	CN1CCN(C2=Nc3cc(Cl)ccc3Nc3ccc(CNC(=O)CCOCCOCCOCCOCCNC(=O)CCc4ccc5n4[B-](F)(F)[N+]4=C(c6ccc[nH]6)C=CC4=C5)cc32)CC1 [Clozapine-b-2-NB590]	–	2.07	2.97	0.97	0.95	0.95	1.05	1.00	1.04
–	–	–	–	–	–	–	–	CN1CCN(C2=Nc3cc(Cl)ccc3N(CC(=O)NCCOCCOCCOCCOCCNC(=O)CCc3ccc4n3[B-](F)(F)[N+]3=C(c5ccc[nH]5)C=CC3=C4)c3ccccc32)CC1 [Clozapine-c-2-NB590]	–	0.95	1.47	1.00	0.94	0.98	1.02	0.96	1.03
